Assay results from patent US20100168084A1, “Therapeutic compounds and related methods of use” (priority 2008, published 2010).
Read-outs that look alike come from different tables or passages of the source.

Target: T1, sirtuin protein (Homo sapiens, UniProt Q96EB6)
T1 sequence (Q96EB6 2-747 limits assumed): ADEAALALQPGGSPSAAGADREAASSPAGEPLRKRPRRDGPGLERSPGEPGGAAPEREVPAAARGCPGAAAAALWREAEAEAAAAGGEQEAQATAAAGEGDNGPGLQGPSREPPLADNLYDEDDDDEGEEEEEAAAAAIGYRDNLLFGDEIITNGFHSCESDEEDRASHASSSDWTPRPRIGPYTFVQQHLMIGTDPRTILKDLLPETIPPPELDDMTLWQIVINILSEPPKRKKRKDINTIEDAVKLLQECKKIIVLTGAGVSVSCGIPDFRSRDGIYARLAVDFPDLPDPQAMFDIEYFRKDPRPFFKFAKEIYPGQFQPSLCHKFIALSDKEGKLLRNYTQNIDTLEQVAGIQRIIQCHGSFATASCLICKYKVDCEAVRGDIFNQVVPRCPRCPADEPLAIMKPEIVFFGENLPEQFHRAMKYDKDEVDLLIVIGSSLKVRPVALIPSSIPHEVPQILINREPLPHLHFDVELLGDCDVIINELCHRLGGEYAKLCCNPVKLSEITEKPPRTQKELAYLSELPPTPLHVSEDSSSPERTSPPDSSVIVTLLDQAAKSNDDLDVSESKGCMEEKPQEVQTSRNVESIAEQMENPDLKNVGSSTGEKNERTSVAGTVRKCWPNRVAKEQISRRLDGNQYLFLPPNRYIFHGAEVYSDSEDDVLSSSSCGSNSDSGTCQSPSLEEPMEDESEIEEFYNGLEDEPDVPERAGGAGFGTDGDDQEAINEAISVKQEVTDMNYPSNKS
Experiment: MS assay (IC50 MS ASSAY / ED50 MS / FOLD ACTIVATION MS)
Assay type: biochemical
Design: scale not given here

[1] = Table 4, class symbols A′, A, B, D, NA, legend not given
[2] = class symbols (A′, A, B, D, NA), no legend given
[3] = MS assay, class symbols A′, A, B, D, NA, legend not given
[4] = MS assay, class symbols, key not given
[5] = Table 4, class symbols A′, A, B, C, NA, legend not given
[6] = Table 4, class symbols, legend not given

CN(C)c1cccc(C(=O)Nc2ccccc2-c2nc3cc(CN4CCNCC4)cnc3s2)c1 [Compound 593]
A′: ED50 MS ASSAY | ED50 MS ASSAY (Table 4) | ED50 MS ASSAY (Table 4, class symbols) | ED50 MS ASSAY [1] | ED50 MS ASSAY [2]

COc1cc(C(=O)Nc2ccccc2-c2cn3ccccc3n2)cc(OC)c1OC [Compound 267]
A′: ED50 MS ASSAY [3] | ED50 MS ASSAY (Table 4) | ED50 MS ASSAY [1]

Cc1csc2nc(-c3ccccc3NC(=O)c3cnc4ccccc4n3)cn12 [Compound 707]
A′: ED50 MS ASSAY | ED50 MS ASSAY [4] | ED50 MS ASSAY (TABLE 4) | ED50 MS ASSAY (Table 4) | ED50 MS ASSAY [5]

COc1cc(C(=O)Nc2ccccc2-c2cn3ccsc3n2)cc(OC)c1OC [Compound 204]
A′: ED50 MS ASSAY (TABLE 4) | ED50 MS ASSAY (Table 4) | ED50 MS ASSAY [6] | ED50 MS ASSAY (class symbols, no key given)

O=C(Nc1ccccc1-c1cn2c(CN3CCNCC3)csc2n1)c1cccc(OC(F)(F)F)c1 [Compound 698]
A′: ED50 MS ASSAY | ED50 MS ASSAY [4] | ED50 MS ASSAY (TABLE 4) | ED50 MS ASSAY (Table 4) | ED50 MS ASSAY [5]

Cc1cc(C)cc(C(=O)Nc2ccccc2-c2nc3ncccc3o2)c1 [Compound 482]
A′: ED50 MS ASSAY | ED50 MS ASSAY (Table 4) | ED50 MS ASSAY [1] | ED50 MS ASSAY [2]

COc1cc(C(=O)Nc2ccccc2-c2cn3cccnc3n2)cc(OC)c1OC [Compound 439]
A′: ED50 MS ASSAY [3] | ED50 MS ASSAY (Table 4) | ED50 MS ASSAY [1]

COc1cc(C(=O)Nc2ccccc2-c2nc3ccccc3[nH]2)ccc1CN1CCOCC1 [Compound 503]
A′: ED50 MS ASSAY | ED50 MS ASSAY (Table 4) | ED50 MS ASSAY (Table 4, class symbols) | ED50 MS ASSAY [1] | ED50 MS ASSAY [2]

COc1ccc(C(=O)Nc2ccccc2-c2cn3ccsc3n2)cc1OC [Compound 203]
A′: ED50 MS ASSAY (TABLE 4) | ED50 MS ASSAY (Table 4) | ED50 MS ASSAY [6] | ED50 MS ASSAY (class symbols, no key given)

O=C(Nc1ccccc1-c1nc2ccc(CN3CCNCC3)nc2s1)c1ccc2ccccc2n1 [Compound 729]
A′: ED50 MS ASSAY | ED50 MS ASSAY [4] | ED50 MS ASSAY (TABLE 4) | ED50 MS ASSAY (Table 4) | ED50 MS ASSAY [5]

CC(=O)N1CCN(Cc2csc3nc(-c4ccccc4NC(=O)c4cnc5ccccc5n4)cn23)CC1 [Compound 651]
A′: ED50 MS ASSAY | ED50 MS ASSAY (Table 4) | ED50 MS ASSAY (Table 4, class symbols) | ED50 MS ASSAY [1] | ED50 MS ASSAY [2]

COc1ccc(-c2ccc(C(=O)Nc3ccccc3-c3cn4c(CN5CCNCC5)csc4n3)o2)cc1 [Compound 736]
A′: ED50 MS ASSAY | ED50 MS ASSAY [4] | ED50 MS ASSAY (TABLE 4) | ED50 MS ASSAY (Table 4) | ED50 MS ASSAY [5]

COc1cc(C(=O)Nc2ccccc2-c2nc3cccnc3[nH]2)ccc1CN1CCOCC1 [Compound 537]
A′: ED50 MS ASSAY | ED50 MS ASSAY (Table 4) | ED50 MS ASSAY (Table 4, class symbols) | ED50 MS ASSAY [1] | ED50 MS ASSAY [2]

CN(C)c1cccc(C(=O)Nc2ccccc2-c2nc3cnccc3s2)c1 [Compound 321]
A′: ED50 MS ASSAY [3] | ED50 MS ASSAY (Table 4) | ED50 MS ASSAY [1]

COc1ccc(C(=O)Nc2cccc(-c3nc4ccncc4o3)c2)c(OC)c1 [Compound 429]
A′: ED50 MS ASSAY [3] | ED50 MS ASSAY (Table 4) | ED50 MS ASSAY [1]

COc1ccc(C(=O)Nc2ccccc2-c2nc3cnccc3s2)c(OC)c1 [Compound 317]
A′: ED50 MS ASSAY [3] | ED50 MS ASSAY (Table 4) | ED50 MS ASSAY [1]

COc1ccc(C(=O)Nc2ccccc2-c2cn3ccccc3n2)cc1OC [Compound 266]
A′: ED50 MS ASSAY [3] | ED50 MS ASSAY (Table 4) | ED50 MS ASSAY [1]

CN(C)c1cccc(C(=O)Nc2cccc(-c3nc4ncccc4s3)c2)c1 [Compound 200]
A′: ED50 MS ASSAY (TABLE 4) | ED50 MS ASSAY (Table 4) | ED50 MS ASSAY [6] | ED50 MS ASSAY (class symbols, no key given)

COc1cc(C(=O)Nc2ccccc2-c2nc3cccnc3[nH]2)ccc1CN1CCN(C)CC1 [Compound 539]
A′: ED50 MS ASSAY | ED50 MS ASSAY (Table 4) | ED50 MS ASSAY (Table 4, class symbols) | ED50 MS ASSAY [1] | ED50 MS ASSAY [2]

NC1CCN(Cc2csc3nc(-c4ccccc4NC(=O)c4cnc5ccccc5n4)cn23)CC1 [Compound 716]
A′: ED50 MS ASSAY | ED50 MS ASSAY [4] | ED50 MS ASSAY (TABLE 4) | ED50 MS ASSAY (Table 4) | ED50 MS ASSAY [5]

CN(C)CCOCc1csc2nc(-c3ccccc3NC(=O)c3cnc4ccccc4n3)cn12 [Compound 647]
A′: ED50 MS ASSAY | ED50 MS ASSAY (Table 4) | ED50 MS ASSAY (Table 4, class symbols) | ED50 MS ASSAY [1] | ED50 MS ASSAY [2]

COc1cc(C(=O)Nc2ccc(-c3nc4cnccc4s3)s2)cc(OC)c1OC [Compound 520]
A′: ED50 MS ASSAY | ED50 MS ASSAY (Table 4) | ED50 MS ASSAY (Table 4, class symbols) | ED50 MS ASSAY [1] | ED50 MS ASSAY [2]

COc1cc(C(=O)Nc2ccccc2-c2cc3ccccc3[nH]2)cc(OC)c1OC [Compound 255]
A′: ED50 MS ASSAY [3] | ED50 MS ASSAY (Table 4) | ED50 MS ASSAY [1]

O=C(Nc1ccccc1-c1nc2cccnc2[nH]1)c1ccc(N2CCCCC2)cc1 [Compound 527]
A′: ED50 MS ASSAY | ED50 MS ASSAY (Table 4) | ED50 MS ASSAY (Table 4, class symbols) | ED50 MS ASSAY [1] | ED50 MS ASSAY [2]

COc1cc(OC)cc(C(=O)Nc2cccc(-c3nc4cccnc4s3)c2)c1 [Compound 215]
A′: ED50 MS ASSAY (TABLE 4) | ED50 MS ASSAY (Table 4) | ED50 MS ASSAY [6] | ED50 MS ASSAY (class symbols, no key given)

COc1ccc(C(=O)Nc2cccc(-c3nc4ccccc4[nH]3)c2)c(OC)c1 [Compound 211]
A′: ED50 MS ASSAY (TABLE 4) | ED50 MS ASSAY (Table 4) | ED50 MS ASSAY [6] | ED50 MS ASSAY (class symbols, no key given)

O=C(Nc1ccccc1-c1nc2cc(CN3CCOCC3)cnc2s1)c1ccc2ccccc2n1 [Compound 724]
A′: ED50 MS ASSAY | ED50 MS ASSAY [4] | ED50 MS ASSAY (TABLE 4) | ED50 MS ASSAY (Table 4) | ED50 MS ASSAY [5]

CN(C)c1ccc(C(=O)Nc2ccccc2-c2nc3cccnc3[nH]2)cc1 [Compound 534]
A′: ED50 MS ASSAY | ED50 MS ASSAY (Table 4) | ED50 MS ASSAY (Table 4, class symbols) | ED50 MS ASSAY [1] | ED50 MS ASSAY [2]

COc1cc(C(=O)Nc2ccc(-c3nc4cnccc4o3)cc2)cc(OC)c1OC [Compound 347]
A′: ED50 MS ASSAY [3] | ED50 MS ASSAY (Table 4) | ED50 MS ASSAY [1]

COc1ccc(C(=O)Nc2cccc(-c3cc4cccnc4o3)c2)c(OC)c1 [Compound 191]
A′: ED50 MS ASSAY (TABLE 4) | ED50 MS ASSAY (Table 4) | ED50 MS ASSAY [6] | ED50 MS ASSAY (class symbols, no key given)

COc1ccc(C(=O)Nc2cccc(-c3nc4cccnc4[nH]3)c2)c(OC)c1OC [Compound 181]
A′: ED50 MS ASSAY (TABLE 4) | ED50 MS ASSAY (Table 4) | ED50 MS ASSAY [6] | ED50 MS ASSAY (class symbols, no key given)

COc1cccc(C(=O)Nc2ccccc2-c2nc3cccnc3[nH]2)c1C [Compound 530]
A′: ED50 MS ASSAY | ED50 MS ASSAY (Table 4) | ED50 MS ASSAY (Table 4, class symbols) | ED50 MS ASSAY [1] | ED50 MS ASSAY [2]

COc1cc(OC)cc(C(=O)Nc2ccccc2-c2nc3cccnc3[nH]2)c1 [Compound 521]
A′: ED50 MS ASSAY | ED50 MS ASSAY (Table 4) | ED50 MS ASSAY (Table 4, class symbols) | ED50 MS ASSAY [1] | ED50 MS ASSAY [2]

Cc1ccc(C(=O)Nc2ccccc2-c2nc3ccc(CN4CCNCC4)nc3s2)cc1C [Compound 727]
A′: ED50 MS ASSAY | ED50 MS ASSAY [4] | ED50 MS ASSAY (TABLE 4) | ED50 MS ASSAY (Table 4) | ED50 MS ASSAY [5]

COc1cc(OC)cc(C(=O)Nc2ccccc2-c2nc3cnccc3o2)c1 [Compound 404]
A′: ED50 MS ASSAY [3] | ED50 MS ASSAY (Table 4) | ED50 MS ASSAY [1]

O=C(Nc1ccccc1-c1cn2c(CN3CCNCC3)csc2n1)c1cc(-c2ccccc2)ncn1 [Compound 625]
A′: ED50 MS ASSAY | ED50 MS ASSAY (Table 4) | ED50 MS ASSAY (Table 4, class symbols) | ED50 MS ASSAY [1] | ED50 MS ASSAY [2]

CN(C)c1ccc(C(=O)Nc2ccc(-c3nc4cnccc4s3)s2)cc1 [Compound 519]
A′: ED50 MS ASSAY | ED50 MS ASSAY (Table 4) | ED50 MS ASSAY (Table 4, class symbols) | ED50 MS ASSAY [1] | ED50 MS ASSAY [2]

CN(C)c1cccc(C(=O)Nc2ccccc2-c2nc3ccncc3o2)c1 [Compound 458]
A′: ED50 MS ASSAY [3] | ED50 MS ASSAY (Table 4) | ED50 MS ASSAY [1]

CN(C)c1cccc(C(=O)Nc2cccc(-c3nc4cnccc4s3)c2)c1 [Compound 402]
A′: ED50 MS ASSAY [3] | ED50 MS ASSAY (Table 4) | ED50 MS ASSAY [1]

COc1ccc(C(=O)Nc2ccccc2-c2cn3cccnc3n2)cc1OC [Compound 438]
A′: ED50 MS ASSAY [3] | ED50 MS ASSAY (Table 4) | ED50 MS ASSAY [1]
